Experimental findings from patent publication US12612622B2, “Targeted mutagenesis using base editors” (Qi Biodesign Biotechnology Company Limited, priority 2018, dated 2026) are described below.

The test system of this data set is OsACCase gene. Description: Base editing (pZRH-PBE + individual sgRNAs) of OsACCase functional domain in transgenic M0 rice plants. Type of data set: in vivo. As to conditions: for Frequency of indel (%) / Frequency of substitution (%) / No. of WT / No. of indel / No. of substitution: transgenic M0 plants; for No. of WT / No. of indel / No. of substitution: per sgRNA target. From the text: For individual cloning, the following method is used. APOBEC1, partial nCas9 and UGI sequences (SEQ ID NO: 129) without BsaI were synthesized commercially (GenScript, Nanjing, China) and cloned into the pUC57 (SEQ ID NO: 130) as intermediate vector. […] The full length APOBEC1-nCas9-UGI was excised using XmaJI and SacI, then was subcloned into pHUE411 that had been digested using the same two enzymes. The resultant vector pZRH-PBE (SEQ ID NO: 133) was used to construct sgRNA expression plasmids using restriction enzyme site BsaI.

The mark [1] stands for this setting: edited allele with the substitution of the same table line.

On to “R28: sgRNA in pZRH-PBE; OsACCase target site GTTACTGGCAGAGCAAAGCTTGG (SEQ ID NO: 92) (expressed or natural sequence; target site or template, no part of the molecule)”, for which the “Frequency of indel (%)” value worked out at 14.3%, the “Frequency of substitution (%)” value is recorded as 42.9%, the “No. of WT” value is 3 and the No. of indel is recorded as 1. Besides, the No. of substitution is 3. Also, under setting [1], the No. of alleles came to 6. Further, the No. of alleles (unedited target site sequence) is given as 0.
Take “R29: sgRNA in pZRH-PBE; OsACCase target site CAAACTATCCCTGCTGACCCTGG (SEQ ID NO: 94) (expressed or natural sequence; target site or template, no part of the molecule)”: the “Frequency of indel (%)” value was 12.0%, the “Frequency of substitution (%)” value is on record as 60.0%, the “No. of WT” value was determined as 7 and the No. of indel is 3. Further, the No. of substitution stood at 15. Further, the No. of alleles (unedited target site sequence) came out at 8.
“R30: sgRNA in pZRH-PBE; OsACCase target site ATGGCTGCAGAGCTACGAGGAGG (SEQ ID NO: 99) (expressed or natural sequence; target site or template, no part of the molecule)”: the “Frequency of indel (%)” value is 12.5%, the “Frequency of substitution (%)” value is listed as 56.3%, the “No. of WT” value was determined as 5 and the No. of indel is listed as 2. The No. of substitution is given as 9. In addition, the No. of alleles (unedited target site sequence) was found to be 5.
For the substance “R31: sgRNA in pZRH-PBE; OsACCase target site GACTGCAAAAGGCAATGTTCTGG (SEQ ID NO: 102) (expressed or natural sequence; target site or template, no part of the molecule)”, the “Frequency of indel (%)” value worked out at 0.0%, the “Frequency of substitution (%)” value is 5.9%, the “No. of WT” value was determined as 16 and the No. of indel was found to be 0. Further, the No. of substitution is 1. Moreover, the No. of alleles under setting [1] is 1. Further, the No. of alleles (unedited target site sequence) is recorded as 1.
For the substance “R32: sgRNA in pZRH-PBE; OsACCase target site CCCAGACCGCATTGAGTGCTATG (SEQ ID NO: 104) (expressed or natural sequence; target site or template, no part of the molecule)”, the “Frequency of indel (%)” value turned out to be 10.5%, the “Frequency of substitution (%)” value came out at 21.1%, the “No. of WT” value came out at 13 and the No. of indel came out at 2. In addition, the No. of substitution was determined as 4. Further, the No. of alleles under setting [1] is recorded as 1. Moreover, the No. of alleles (unedited target site sequence) was found to be 2.
Take “R33: sgRNA in pZRH-PBE; OsACCase target site CCTTTGTCTACATTCCCATGGCT (SEQ ID NO: 107) (expressed or natural sequence; target site or template, no part of the molecule)”: the “Frequency of indel (%)” value came out at 5.9%, the “Frequency of substitution (%)” value is recorded as 41.2%, the “No. of WT” value came to 9 and the No. of indel is recorded as 1. In addition, the No. of substitution is given as 7. For the same substance, the No. of alleles under setting [1] is 1. The No. of alleles (unedited target site sequence) is on record as 1.
“R34: sgRNA in pZRH-PBE; OsACCase target site CCAGTGGGTGTGATAGCTGTGGA (SEQ ID NO: 109) (expressed or natural sequence; the letters are possibly those of the target site)”: the “Frequency of indel (%)” value is given as 0.0%, the “Frequency of substitution (%)” value stood at 71.4%, the “No. of WT” value is reported as 4 and the No. of indel is reported as 0. The No. of substitution is recorded as 10. Besides, the No. of alleles (edited allele with the substitution of the same table line, edited allele (SEQ ID NO: 110)) was found to be 3. For the same substance, the No. of alleles (edited allele with the substitution of the same table line, edited allele (SEQ ID NO: 111)) is given as 2. Also, the No. of alleles (edited allele with the substitution of the same table line, edited allele (SEQ ID NO: 112)) is 4. For the same substance, the No. of alleles (unedited target site sequence) is listed as 7.
Turning to “R35: sgRNA in pZRH-PBE; OsACCase target site CCAAGGGAAATGGTTAGGTGCTA (SEQ ID NO: 113) (guide CCAAGGGAAATGGTTAGGTGGTA; sgRNA expressed from vector pZRH-PBE, further chemistry not given here; the letters are possibly those of the target site)”, the “Frequency of indel (%)” value is listed as 0.0%, the “Frequency of substitution (%)” value was 12.5%, the “No. of WT” value is reported as 7 and the No. of indel is given as 0. Besides, the No. of substitution was found to be 1. The No. of alleles under setting [1] is 2. The No. of alleles (unedited target site sequence) was 0.
On to “R36: sgRNA in pZRH-PBE; OsACCase target site CCTCGAGCGGCTATCCGTGGTGT (SEQ ID NO: 115) (expressed or natural sequence; the letters are possibly those of the target site)”, for which the “Frequency of indel (%)” value is recorded as 0.0%, the “Frequency of substitution (%)” value stood at 35.7%, the “No. of WT” value is on record as 9 and the No. of indel turned out to be 0. Also, the No. of substitution came to 5. In addition, the No. of alleles under setting [1] turned out to be 1. Also, the No. of alleles (unedited target site sequence) is 3.
For the substance “R37: sgRNA in pZRH-PBE; OsACCase target site CCTGAGAACTCGTGTGATCCTCG (SEQ ID NO: 119) (expressed or natural sequence; target site or template, no part of the molecule)”, the “Frequency of indel (%)” value is 45.5%, the “Frequency of substitution (%)” value was found to be 18.2%, the “No. of WT” value is 4 and the No. of indel was found to be 5. The No. of substitution came to 2. Moreover, the No. of alleles (edited allele with the substitution of the same table line, edited allele (SEQ ID NO: 120)) worked out at 1. Where the note is “edited allele with the substitution of the same table line, edited allele (SEQ ID NO: 121)”, the No. of alleles was found to be 2. The No. of alleles (unedited target site sequence) is listed as 1.
In the case of “R38: sgRNA in pZRH-PBE; OsACCase target site CCTGTTGCATACATTCCTGAGAA (SEQ ID NO: 122) (expressed or natural sequence; target site or template, no part of the molecule)”, the “Frequency of indel (%)” value worked out at 28.6%, the “Frequency of substitution (%)” value came to 35.7%, the “No. of WT” value is listed as 5 and the No. of indel came out at 4. Besides, the No. of substitution stood at 5. Also, for the setting “unedited target site sequence”, the No. of alleles is reported as 4.
On to “R39: sgRNA in pZRH-PBE; OsACCase target site CCGTTGGACCCACCGGACAGACC (SEQ ID NO: 125) (expressed or natural sequence; target site or template, no part of the molecule)”, for which the “Frequency of indel (%)” value is 50.0%, the “Frequency of substitution (%)” value was 25.0%, the “No. of WT” value was 1 and the No. of indel is 2. The No. of substitution was determined as 1. Further, the No. of alleles under setting [1] came to 1. Also, the No. of alleles (unedited target site sequence) came to 1.
As for “R40: sgRNA in pZRH-PBE; OsACCase target site CCTATTATTCTTACAGGCTATTC (SEQ ID NO: 127) (chemistry not fully specified; the letters are possibly those of the target site)”, the “Frequency of indel (%)” value is 6.7%, the “Frequency of substitution (%)” value worked out at 13.3%, the “No. of WT” value is on record as 12 and the No. of indel stood at 1. The No. of substitution is reported as 2. For the same substance, under setting [1], the No. of alleles worked out at 1. Also, the No. of alleles (unedited target site sequence) was 1.
